Data published in patent publication US12391919B2, “Culture medium, coating matrix and method for maturing midbrain dopaminergic progenitor cells” (NUWACELL BIOTECHNOLOGIES CO., LTD., priority 2022, dated 2025).

What was measured:
Type in all cases: cell-based, human
imDAPs [1] = assay: imDAP expansion: cell morphology, cell number (Vi-cell cytometer), expansion fold, Population Doubling Time
Procedure: imDAPs were produced according to the method described in CN201910169525.0. The imDAPs (P0) were seeded on VTN-coated plates (1 μg/cm^2) at a density of 1×10^5 cells/cm^2 in the expansion medium (50% DMEM/F12, 50% Neurobasal™ medium, 1% (v/v) Glutamax, 2% (v/v) B27 (50×), 0.2 μM LDN193189, 3 μM CHIR99021, 100 ng/mL FGF8b) in the absence or presence of 5 μM Blebbistatin. In case where Blebbistatin is present, Blebbistatin was either removed 24 hrs after plating or present throughout the culture period. The medium was changed every day for 5 days.
imDAPs were produced according to the method described in CN201910169525.0. The imDAPs (P0) were seeded on VTN-coated plates (1 μg/cm^2) at a density of 1×10^5 cells/cm^2 in the expansion medium (50% DMEM/F12, 50% Neurobasal™ medium, 1% (v/v) Glutamax, 2% (v/v) B27 (50×), 3 μM CHIR99021, 100 ng/mL FGF8b, […]) in the absence or presence of 0.2 μM LDN193189. The medium was changed every day for 5 days.
imDAPs were produced according to the method described in CN201910169525.0. The imDAPs (P0) were seeded on VTN-coated plates (1 μg/cm^2) at a density of 1×10^5 cells/cm^2 in the expansion medium (50% DMEM/F12, 50% Neurobasal™ medium, 1% (v/v) Glutamax, 2% (v/v) B27 (50×), 0.2 μM LDN193189, 3 μM CHIR99021, 100 ng/mL FGF8b, 5 μM Blebbistatin). The medium was changed every day. When imDAPs reach 100% confluence (4-5 days), cells were passaged enzymatically with 1× TrypLE, centrifuged at 250 g for 5 minutes, counted and replaced on new VTN-coated plates (1 μg/cm^2) at a density of 1×10^5 cells/cm^2 in the expansion medium. imDAPs were continuously expanded for 6 passages. At each passage, imDAPs were harvested at an expansion fold 5˜10 (over the initial number of imDAPs plated).
imDAPs were produced according to the method described in CN201910169525.0. The imDAPs (P0) were seeded on DLL4-coated ([…]), VTN-coated (1 μg/cm^2) and DLL4/VTN-coated ([…]) plates at a low density of 1×10^4 cells/cm^2 respectively, and cultured in the expansion medium in the absence or presence of 5 µM SB431542. Medium was replaced every 3rd day until reaching 100% confluence (6 days) for cell collection. The typical cell morphology on day 4 was recorded (FIG. 4A). The cell number of each group was counted by Vi-cell cytometer (FIG. 4B). The cells of each group were stained with Foxa2-PE antibody (BD, #561589), the percentage of Foxa2+ imDAPs were analyzed by flow cytometry (FIG. 4C). The expansion medium used in this example contained the following components: 50% DMEM/F12, 50% Neurobasal™ medium, 1% (v/v) Glutamax, 1% (v/v) B27, 50 μg/ml ascorbic acid, 0.2 μM LDN193189, 100 ng/ml FGF8b, 3 μM CHIR99021 and 10 μM Y27632.
imDAPs were produced according to the method described in CN201910169525.0. The imDAPs (P0) were seeded on DLL4/VTN-coated (1 μg/cm^2 for each) plates at a low density of 1×10^4 cells/cm^2, and cultured in the expansion medium (EM1, EM2, EM3, EM4). Medium was replaced every 3rd day until reaching 100% confluence (6 days) for cell collection. EM1 used in Example 9 contained the following components: 50% DMEM/F12, 50% Neurobasal™ medium, 1% (v/v) Glutamax, 1% (v/v) B27 (50×), […], 3 μM CHIR99021, 5 μM SB431542 and 10 μM Y27632. EM2 used in Example 9 contained the following components: 50% DMEM/F12, 50% Neurobasal™ medium, 1% (v/v) Glutamax, 1% (v/v) B27 (50×), 50 μg/ml ascorbic acid, […] LDN193189, 3 μM CHIR99021, 5 μM SB431542 and 10 μM Y27632. EM3 used in Example 9 contained the following components: 50% DMEM/F12, 50% Neurobasal™ medium, 1% (v/v) Glutamax, 1% (v/v) B27 (50×), 50 μg/mL ascorbic acid, […], 100 ng/ml FGF8b, 3 μM CHIR99021, 5 μM SB431542 and 10 μM Y27632. EM4 used in Example 9 contained the following components: 50% DMEM/F12, 50% Neurobasal™ medium, 1% (v/v) Glutamax, 1% (v/v) B27 (50×), 50 μg/ml ascorbic acid, 0.2 μM LDN193189, 10 ng/ml FGF2, 3 μM CHIR99021, 5 μM SB431542 and 10 μM Y27632. […]

imDAPs [2] = assay: Flow cytometry (FACS) analysis of FOXA2 expression in expanded imDAPs; conditions: Example 8; VTN or DLL4/VTN coating, with or without SB431542; FIG. 4C
Procedure: • 1. Individualize and collect cells by either Accutase or TrypLE treatment. • 2. Wash cells with 1 ml PBS and pellet cells at 250×g for 15 sec. • 3. Remove supernatant, add ˜200 μl of 4% PFA, mix and fix for 10 min at RT. • 4. Pellet cells at 350×g for 5 min. • 5. Wash cells by 1 ml of FACS buffer and pellet cells at 350×g for 5 min. • 6. Remove supernatant, add 200 μl/tube of FACS buffer/0.1% TritonX, mix for 10 min at RT. • 7. Wash cells by 1 ml of FACS buffer and pellet cells at 350×g for 5 min. • 8. Remove supernatant, add 200 μl/tube of primary antibody diluted in FACS buffer, mix gently, and incubate for 30 min at RT. • 9. Wash cells by 1 ml of FACS buffer and pellet cells at 350×g for 5 min. • 10. Remove supernatant, and add 200 μl of secondary antibody diluted in FACS buffer, mix gently, and incubate for 30 min at RT. • 11. Wash cells by 1 ml of FACS buffer and pellet cells at 300×g for 5 min. • 12. Remove supernatant, add 200 μl of FACS buffer, and run samples on the flow cytometry. (2) qRT-PCR • 1. For qRT-PCR analysis of mRNA gene expression, RNA should be harvested from at least 2×10^6 cells. • 2. Harvest cells, add 350 μl of buffer RLT+1% (vol/vol) s-mercaptoethanol to the well, transfer the lysate to a 1.5 ml tube, and put it immediately on ice. • 3. Perform RNA extraction using the Tiangen Kit (DP430), and follow the manufacturer's protocol ‘Purification of total RNA from animal and human cells’. • 4. When the RNA extraction was completed, determine the RNA concentration using a Nanodrop instrument. • 5. Perform the first-strand cDNA synthesis reaction with 1 μg of RNA using the HiScript TM II Q RT SuperMIX for qPCR(+gDNA wiper) Kit (Vazyme, #R223-01) for RT-qPCR. Follow the manufacturer's ‘First-Strand cDNA Synthesis’ protocol. This reaction would yield a 20 μl product. • 6. Dilute the 10 μl cDNA product in 80 μl of nuclease-free water. • 7. Pipette the diluted cDNA product (1 μl), Sybr green master mix (5 μl, Transgen, #AQ131) and 0.95 μM reverse/forward primer mix (4 μl) into a 384-well PCR plate in triplicate, either manually or using an automated pipetting robot. The complete primer panel included the target genes and the housekeeping gene (RPL13A). In the analysis, also included a sample of undifferentiated hPSCs to determine the gene expression levels relative to the expression in hPSCs. • 8. Analyze the samples by running a quantitative PCR on the LightCycler 480 instrument using a 40× cycle two-step protocol with a 60° C., 60 sec annealing/elongation step and a 95° C., 30 sec denaturation step. The average CT values from the three technical replicates were used for calculations of relative gene expression using the ΔΔCT method. For each gene, calculate the FC of the differentiated samples relative to the undifferentiated control sample using the housekeeping gene for normalization. Next, calculate the average of the FC values on the basis of the housekeeping gene. (3) Immunocytochemical Analysis • 1. Cell fixation: Remove the medium from the cells and wash with PBS. Add 4% (wt/vol) PFA (e.g., 200 μl to a well in a 48-well plate) and incubate at room temperature (RT) for 15 min. after incubation, wash the cells three times in PBS. • 2. Blocking: Remove PBS from the wells and add blocking solution to the cells, add enough volume to cover the cells. Leave the cells in blocking solution for 1 h at RT. • 3. Primary antibodies incubation: Remove the blocking solution from the cells and add the primary antibody solutions (˜100 μl/cm^2). […]

imDAPs [3] = assay: imDAP maturation: cell morphology, adhesion and cell yield; conditions: Example 12; 1 μM IWR1 for at least 3 days; day 7; FIG. 7D
Procedure: imDAPs were produced according to the method described in CN201910169525.0, and expanded as described in Example 10. […] MM-H used in Example 11 contained the following components: Neurobasal™ medium, 1% (v/v) Glutamax, 0.5 mM Db-cAMP sodium salt, 200 μM ascorbic acid, 20 ng/ml BDNF, 20 ng/ml GDNF, 1 ng/ml TGF-β3, 10 μM DAPT, HhPLT (0.5%, 1%, 2%). MM-B used in Example 11 contained the following components: Neurobasal, 1% (v/v) Glutamax, 0.5 mM Db-cAMP sodium salt, 200 μM ascorbic acid, 20 ng/ml BDNF, 20 ng/ml GDNF, 1 ng/ml TGF-β3, 10 μM DAPT, 2% (v/v) B27 (50×) (as control). The above HhPLT was produced from hPLT as follows. The hPLT was centrifuged at 3000 g for 30 min at 4° C. to obtain the supernatant, which was heated to 56° C. for 30 min. The suspension was finally cooled down to 4° C. at least 5 min, and spun at 3000 g for 30 min at 4° C. to obtain the HhPLT supernatant. Aliquots were prepared and stored at −80° C. until use. The above Medium was changed every 3rd day. On day 7, the imDAPs at early maturation stage were dissociated enzymatically with 1× TrypLE, centrifuged at 250 g for 5 minutes.
imDAPs were produced according to the method described in CN201910169525.0, and expanded as described in Example 10. […] Medium was changed every 3rd day. On day 7, the imDAPs at early maturation stage were dissociated enzymatically with 1× TrypLE, centrifuged at 250 g for 5 minutes. Cells were collected for RT-qPCR analysis of EN1, LMX1A, FOXA2, NURR1, SOX6 and TH gene expression. The maturation medium used in Example 12 contained the following components: Neurobasal™ medium, 1% (v/v) Glutamax, 1% (v/v) HhPLT, 0.5 mM Db-cAMP sodium salt, 200 μM ascorbic acid, 20 ng/mL BDNF, 20 ng/mL GDNF, 1 ng/mL TGF-β3, 10 μM DAPT.
imDAPs were produced according to the method described in CN201910169525.0, and expanded as described in Example 10. […] Cells were collected and counted by Vi-cell cytometer. The cells were analyzed by RT-qPCR for EN1, LMX1A, FOXA2, NURR1, SOX6 and TH gene expression. […]

Cc1ccc2c(c1)C(=O)C1(O)CCN(c3ccccc3)C1=N2 (centres unmarked) [Blebbistatin]
imDAP expansion (cell morphology) (imDAPs [1]; Example 1, 5 μM Blebbistatin throughout culture vs no Blebbistatin or plating day only, VTN-coated plates, 5 days, FIG. 1A): supported better imDAP expansion

FGF2: fibroblast growth factor, used at 10 ng/ml
imDAP expansion (overall conclusion) (imDAPs [1]; Example 9): had no additional effects on imDAP expansion | cell morphology of expanded imDAPs (imDAPs [1]; Example 9, 10 ng/ml FGF2 (EM4), DLL4/VTN-coated, day 5, FIG. 5A): some obvious heterogeneous cells were observed

NC(=O)c1ccc(-c2nc(-c3ccc4c(c3)OCO4)c(-c3ccccn3)[nH]2)cc1 [SB431542]
FOXA2 expression (percentage of Foxa2+ imDAPs) (imDAPs [2]): could improve FOXA2 expression

O=C(Nc1cccc2cccnc12)c1ccc(N2C(=O)[C@@H]3[C@H](C2=O)[C@@H]2C=C[C@H]3C2)cc1 [IWR1]
cell morphology during maturation (imDAPs [3]): showed more obvious neural fibers
